These are literature values, as cited in PubChem BioAssay AID1259409 (Chemical Carcinogenesis Research Information System (CCRIS), 2018).

The test system of the series is rodent chemically induced tumor inhibition, incidence and multiplicity. The series can be described thus: CCRIS tumor inhibitor studies. The conditions noted are these: Dose [Inhibitor]: 0.

Structures are written as SMILES.

Turning to `Cc1cc2cc3ccc4cccc5ccc(c2oc1=O)c3c45`, the outcome is listed as 8.9, 2.8, 69%, p<0.05 (Carcinogen: DIMETHYLBENZ[A]ANTHRACENE, 57-97-6, 200 NMOL IN ACETONE ONCE 5 MIN PRIOR TO CARCINOGEN DOSE (STUDY DURATION: 14 WK), Route [Inhibitor]: DERMAL, Species: MOUSE, Strain/Sex: SENCAR/FEMALE, Target Tissue: Type of Lesion: SKIN: PAPILLOMA, Dose [Carcinogen]: 10 NMOL ONCE, Promoter: 12-O-TETRADECANOYLPHORBOL-13-ACETATE, 16561-29-8); 8.9, 2.1, 76%, p<0.05 (Carcinogen: DIMETHYLBENZ[A]ANTHRACENE, 57-97-6, 200 NMOL IN ACETONE ONCE 24 HR PRIOR TO CARCINOGEN DOSE (STUDY DURATION: 14 WK), Route [Inhibitor]: DERMAL, Species: MOUSE, Strain/Sex: SENCAR/FEMALE, Target Tissue: Type of Lesion: SKIN: PAPILLOMA, Dose [Carcinogen]: 10 NMOL ONCE, Promoter: 12-O-TETRADECANOYLPHORBOL-13-ACETATE, 16561-29-8); 8.9, 3.3, 63%, p<0.05 (Carcinogen: DIMETHYLBENZ[A]ANTHRACENE, 57-97-6, 400 NMOL IN ACETONE ONCE 5 MIN PRIOR TO CARCINOGEN DOSE (STUDY DURATION: 14 WK), Route [Inhibitor]: DERMAL, Species: MOUSE, Strain/Sex: SENCAR/FEMALE, Target Tissue: Type of Lesion: SKIN: PAPILLOMA, Dose [Carcinogen]: 10 NMOL ONCE, Promoter: 12-O-TETRADECANOYLPHORBOL-13-ACETATE, 16561-29-8).

Take `C[C@]12CC[C@@H]3c4ccc(O)cc4CC[C@H]3[C@@H]1CC[C@@H]2O`: the “tumour outcome (control, treated, inhibition, significance)” value by setting is: (Carcinogen: DIETHYLNITROSAMINE, 55-18-5, 0.5-1 MG IN PELLET IMPLANTED 1/MONTH FOR 26 WK BEGINNING 30 D POST CARCINOGEN TREATMENT. DOSING BEGAN SAME DAY OF ORC, Route [Inhibitor]: SUBCUTANEOUS, Species: MOUSE, Strain/Sex: B6C3F1/MALE, Target Tissue: Type of Lesion: LIVER: TUMOR, Dose [Carcinogen]: 2.5 UG/G BW IN SALINE ONCE, Promoter: NONE) 19/30 (63%), 6/23 (26%), 59%, not significant; (Carcinogen: N-ETHYL-N-NITROSOUREA, 759-73-9, 0.1 MG PELLET IMPLANTED WITHIN 24 HR OF BIRTH AND REPLACED EVERY 2 MO (STUDY DURATION: 8 MO), Route [Inhibitor]: SUBCUTANEOUS IMPLANT, Species: RAT, Strain/Sex: WF X LE F1/FEMALE, Target Tissue: Type of Lesion: TRIGEMINAL NERVE: SCHWANNOMA, Dose [Carcinogen]: 40 MG/KG ONCE WITHIN 24 HR OF BIRTH, Promoter: NONE USED) 14/19 (74%), 12/20 (60%), 19%, not calculated; (Carcinogen: N-ETHYL-N-NITROSOUREA, 759-73-9, 0.1 MG PELLET IMPLANTED WITHIN 24 HR OF BIRTH AND REPLACED EVERY 2 MO (STUDY DURATION: 8 MO), Route [Inhibitor]: SUBCUTANEOUS IMPLANT, Species: RAT, Strain/Sex: WF X LE F1/MALE, Target Tissue: Type of Lesion: TRIGEMINAL NERVE: SCHWANNOMA, Dose [Carcinogen]: 40 MG/KG ONCE WITHIN 24 HR OF BIRTH, Promoter: NONE USED) 19/21 (91%), 13/22 (59%), 35%, p<0.05; (Carcinogen: N-METHYL-N-NITROSOUREA, 684-93-5, 2.5 MG IN CHOLESTEROL PELLET IMPLANTED 2 WK PRIOR TO CARCINOGEN DOSE AND REPLACED EVERY 4 WK (STUDY DURATION: 36 WK), Route [Inhibitor]: SUBCUTANEOUS IMPLANT, Species: RAT, Strain/Sex: F344/FEMALE, Target Tissue: Type of Lesion: MAMMARY GLAND: CARCINOMA, Dose [Carcinogen]: 50 MG/KG BW ONCE, Promoter: NONE USED) 10/20 (50%), 1/28 (4%), 92%, p<0.01; (Carcinogen: N-METHYL-N-NITROSOUREA, 684-93-5, 2.5 MG IN CHOLESTEROL PELLET IMPLANTED AT TIME OF CARCINOGEN DOSE AND REPLACED EVERY 4 WK (STUDY DURATION: 35 WK), Route [Inhibitor]: SUBCUTANEOUS IMPLANT, Species: RAT, Strain/Sex: F344/MALE, Target Tissue: Type of Lesion: MAMMARY GLAND: CARCINOMA, Dose [Carcinogen]: 50 MG/KG BW ONCE, Promoter: NONE USED) 10?20 (50%), 7/16 (44%), 12%, not significant; (Carcinogen: N-METHYL-N-NITROSOUREA, 684-93-5, 20 UG IN SILASTIC CAPSULES FOR 3 WK IMPLANTED 2 WK POST CARCINOGEN TREATMENT (STUDY DURATION: 10 MO), Route [Inhibitor]: SUBCUTANEOUS, Species: RAT, Strain/Sex: LEWIS/FEMALE, Target Tissue: Type of Lesion: MAMMARY GLAND: TUMOR, Dose [Carcinogen]: 50 MG/KG BW ONCE AT 7 WK OF AGE) 11/11 (100%), 8/11 (73%), 27%, not significant. The “tumour outcome (control, treated, inhibition, significance)” value is given as 11/11 (100%), 2/12 (17%), 83%, p<0.001 (Carcinogen: N-METHYL-N-NITROSOUREA, 684-93-5, 30 MG IN SILASTIC CAPSULES FOR 3 WK IMPLANTED 2 WK POST CARCINOGEN TREATMENT (STUDY DURATION: 10 MO), Route [Inhibitor]: SUBCUTANEOUS, Species: RAT, Strain/Sex: LEWIS/FEMALE, Target Tissue: Type of Lesion: MAMMARY GLAND: TUMOR, Dose [Carcinogen]: 50 MG/KG BW ONCE AT 7 WK OF AGE); 13/15 (87%), 7/16 (44%), 49%, p<0.05 (Carcinogen: N-METHYL-N-NITROSOUREA, 684-93-5, 100 UG IN SILASTIC CAPSULES FOR 2 WK IMPLANTED 2 WK POST CARCINOGEN TREATMENT (STUDY DURATION: 10 MO), Route [Inhibitor]: SUBCUTANEOUS, Species: RAT, Strain/Sex: LEWIS/FEMALE, Target Tissue: Type of Lesion: MAMMARY GLAND: TUMOR, Dose [Carcinogen]: 50 MG/KG BW ONCE AT 7 WK OF AGE); 11/11 (100%), 2/12 (17%), 83%, p<0.001 (Carcinogen: N-METHYL-N-NITROSOUREA, 684-93-5, 100 UG IN SILASTIC CAPSULES FOR 3 WK IMPLANTED 2 WK POST CARCINOGEN TREATMENT (STUDY DURATION: 10 MO), Route [Inhibitor]: SUBCUTANEOUS, Species: RAT, Strain/Sex: LEWIS/FEMALE, Target Tissue: Type of Lesion: MAMMARY GLAND: TUMOR, Dose [Carcinogen]: 50 MG/KG BW ONCE AT 7 WK OF AGE); 13/15 (87%), 3/15 (20%), 77%, p<0.01 (Carcinogen: N-METHYL-N-NITROSOUREA, 684-93-5, 200 UG IN SILASTIC CAPSULES FOR 1 WK IMPLANTED 2 WK POST CARCINOGEN TREATMENT (STUDY DURATION: 10 MO), Route [Inhibitor]: SUBCUTANEOUS, Species: RAT, Strain/Sex: LEWIS/FEMALE, Target Tissue: Type of Lesion: MAMMARY GLAND: TUMOR, Dose [Carcinogen]: 50 MG/KG BW ONCE AT 7 WK OF AGE); 11/11 (100%), 2/12 (17%), 83%, p<0.001 (Carcinogen: N-METHYL-N-NITROSOUREA, 684-93-5, 200 UG IN SILASTIC CAPSULES FOR 3 WK IMPLANTED 2 WK POST CARCINOGEN TREATMENT (STUDY DURATION: 10 MO), Route [Inhibitor]: SUBCUTANEOUS, Species: RAT, Strain/Sex: LEWIS/FEMALE, Target Tissue: Type of Lesion: MAMMARY GLAND: TUMOR, Dose [Carcinogen]: 50 MG/KG BW ONCE AT 7 WK OF AGE). Further, where the note is “Carcinogen: N-ETHYL-N-NITROSOUREA, 759-73-9, 0.1 MG PELLET IMPLANTED WITHIN 24 HR OF BIRTH AND REPLACED EVERY 2 MO (STUDY DURATION: 8 MO), Route [Inhibitor]: SUBCUTANEOUS IMPLANT, Species: RAT, Strain/Sex: WF X LE F1/MALE, Target Tissue: Type of Lesion: KIDNEY: TUMOR, Dose [Carcinogen]: 40 MG/KG ONCE WITHIN 24 HR OF BIRTH, Promoter: NONE USED”, the outcome is recorded as 0/21 (0%), 7/22 (32%), -100%, not calculated.

For `CCOC(=O)C(C)(C)Br`, the “tumour outcome (control, treated, inhibition, significance)” value runs as follows: (Carcinogen: N-METHYL-N'-NITRO-N-NITROSOGUANIDINE, 70-25-7, 42 MG/KG TWICE WITHIN 24 HR THEN 105 MG/KG 1/2 WK FOR DURATION OF STUDY BEGINNING 1 WK POST LAST CARCINOGEN DOSE (STU, Route [Inhibitor]: INTRAPERITONEAL, Species: RAT, Strain/Sex: SHR/MALE, Target Tissue: Type of Lesion: STOMACH: ADENOCARCINOMA, Dose [Carcinogen]: 25 UG/ML IN DRINKING WATER FOR 25 WK, Promoter: NONE USED) 10/19 (53%), 2/17 (12%), 77%, p<0.05; (Carcinogen: N-METHYL-N'-NITRO-N-NITROSOGUANIDINE, 70-25-7, 42 MG/KG TWICE WITHIN 24 HR THEN 105 MG/KG 1/2 WK FOR DURATION OF STUDY BEGINNING 1 WK POST LAST CARCINOGEN DOSE (STU, Route [Inhibitor]: INTRAPERITONEAL, Species: RAT, Strain/Sex: WISTAR/MALE, Target Tissue: Type of Lesion: STOMACH: ADENOCARCINOMA, Dose [Carcinogen]: 25 UG/ML IN DRINKING WATER FOR 25 WK, Promoter: NONE USED) 2/18 (11%), 0/17 (0%), 100%, not significant.
